Experimental findings from patent US20260028326A1, “COMPOUND BASED ON ISOINDOLINE-SUBSTITUTED GLUTARIMIDE BACKBONE AND USE THEREOF” (GLUETACS THERAPEUTICS (SHANGHAI) CO., LTD., priority 2022, published 2026) are described below.

human Cereblon WT GST-tagged protein, sequence (Q96SW2 whole entry): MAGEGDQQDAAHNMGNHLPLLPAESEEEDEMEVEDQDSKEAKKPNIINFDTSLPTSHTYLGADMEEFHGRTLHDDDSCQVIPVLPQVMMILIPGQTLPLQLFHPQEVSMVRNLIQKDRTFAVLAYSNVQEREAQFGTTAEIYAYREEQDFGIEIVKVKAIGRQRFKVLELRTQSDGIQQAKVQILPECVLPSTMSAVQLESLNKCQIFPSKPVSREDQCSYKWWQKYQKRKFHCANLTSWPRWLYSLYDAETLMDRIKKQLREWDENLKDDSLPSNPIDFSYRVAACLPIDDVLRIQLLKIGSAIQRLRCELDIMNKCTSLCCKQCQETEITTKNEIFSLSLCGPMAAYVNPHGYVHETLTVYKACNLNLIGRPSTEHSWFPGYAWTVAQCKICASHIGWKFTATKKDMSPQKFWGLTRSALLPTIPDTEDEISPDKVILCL

The experiment has as its target human Cereblon WT GST-tagged protein (Homo sapiens (Human), UniProt Q96SW2). Kind of experiment: CRBN-binding affinity, HTRF (CEREBLON BINDING kit). Put shortly:
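GST-tagged human WT Cereblon incubated with compound, then Thalidomide-Re tracer and anti-GST Eu antibody added. Displacement read by HTRF, reported as CRBN binding inhibition rate against blank control wells without protein.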
The IC50 is the concentration that gives 50% inhibition. Read a high IC50 as a need for much substance. As to `CC1(C)CCC(CN2CCCN(C(=O)c3ccc4c(c3)CN(C3CCC(=O)NC3=O)C4=O)CC2)=C(c2ccc(Cl)cc2)C1` (centres unmarked) [GT-05453, 3-(5-(4-((4′-chloro-5,5-dimethyl-3,4,5,6-tetrahydro-[1,1′-biphenyl]-2-yl)methyl)-1,4-diazepane-1-carbonyl)-1-oxoisoindolin-2-yl)piperidine-2,6-dione], the IC50 is 1240 nM.
Consider `O=C1CCC(N2Cc3c(CN4CCN(Cc5ccccc5-c5ccc(F)cc5)CC4)cccc3C2=O)C(=O)N1` (centres unmarked) [GT-05605, 3-(4-((4-((4′-fluoro-[1,1′-biphenyl]-2-yl)methyl)piperazin-1-yl)methyl)-1-oxoisoindolin-2-yl)piperidine-2,6-dione], for which the IC50 was determined as 1050 nM.
Compound `CC1(C)CCC(CN2CC3CCC(C2)N3C(=O)c2ccc3c(c2)CN(C2CCC(=O)NC2=O)C3=O)=C(c2ccc(Cl)cc2)C1` (centres unmarked) [GT-05458, 3-(5-(3-((4′-chloro-5,5-dimethyl-3,4,5,6-tetrahydro-[1,1′-biphenyl]-2-yl)methyl)-3,8-diazabicyclo[3.2.1]octane-8-carbonyl)-1-oxoisoindolin-2-yl)piperidine-2,6-dione] yielded a concentration for half-maximal inhibition (IC50) of 1410 nM.
Compound `O=C1CCC(N2C(=O)c3ccc(C(=O)N4CCN(Cc5cccc(-c6ccc(Cl)cc6)c5)CC4)cc3C2=O)C(=O)N1` (centres unmarked) [GT-05631, 5-(4-((4′-chloro-[1,1′-biphenyl]-3-yl)methyl)piperazine-1-carbonyl)-2-(2,6-dioxopiperidin-3-yl)isoindoline-1,3-dione] showed a 50% inhibitory concentration (IC50) of 1750 nM.
The compound `CC1(C)CCC(C(=O)N2C3CCC2CN(C(=O)c2ccc4c(c2)CN(C2CCC(=O)NC2=O)C4=O)C3)=C(c2ccc(Cl)cc2)C1` (centres unmarked) [GT-05540, 3-(5-(8-(4′-chloro-5,5-dimethyl-3,4,5,6-tetrahydro-[1,1′-biphenyl]-2-carbonyl)-3,8-diazabicyclo[3.2.1]octane-3-carbonyl)-1-oxoisoindolin-2-yl)piperidine-2,6-dione] had a concentration for half-maximal inhibition (IC50) of 960 nM.
Regarding `O=C1CCC(N2Cc3c(CN4CCN(C(=O)C5=C(c6ccc(F)cc6)CCCC5)CC4)cccc3C2=O)C(=O)N1` (centres unmarked) [GT-05471, 3-(4-((4-(4′-fluoro-3,4,5,6-tetrahydro-[1,1′-biphenyl]-2-carbonyl)piperazin-1-yl)methyl)-1-oxoisoindolin-2-yl)piperidine-2,6-dione], the IC50 amounted to 1080 nM.
With `CC1(C)CCC(C(=O)N2CCN(Cc3ccc4c(c3)CN(C3CCC(=O)NC3=O)C4=O)CC2)=C(c2ccc(F)cc2)C1` (centres unmarked) [GT-05520, 3-(5-((4-(4′-fluoro-5,5-dimethyl-3,4,5,6-tetrahydro-[1,1′-biphenyl]-2-carbonyl)piperazin-1-yl)methyl)-1-oxoisoindolin-2-yl)piperidine-2,6-dione], the half-maximal inhibitory concentration (IC50) was 350 nM.
For the compound `O=C1CCC(N2Cc3cc(CN4CCCN(Cc5ccccc5-c5ccc(Cl)cc5)CC4)ccc3C2=O)C(=O)N1` (centres unmarked) [GT-05611, 3-(5-((4-((4′-chloro-[1,1′-biphenyl]-2-yl)methyl)-1,4-diazepan-1-yl)methyl)-1-oxoisoindolin-2-yl)piperidine-2,6-dione], the half-inhibitory concentration (IC50) amounted to 630 nM.
The compound `CC1(C)CC(c2ccc(Cl)cc2)=C(CN2CCN(C(=O)c3ccc4c(c3)CN(C3CCC(=O)NC3=O)C4=O)CC2)CO1` (centres unmarked) [GT-05673, 3-(5-(4-((4-(4-chlorophenyl)-6,6-dimethyl-5,6-dihydro-2H-pyran-3-yl)methyl)piperazine-1-carbonyl)-1-oxoisoindolin-2-yl)piperidine-2,6-dione] had a half-maximal inhibitory concentration (IC50) of 1140 nM.
Then `O=C1CCC(N2Cc3cc(CC4CN(Cc5ccccc5-c5ccc(Cl)cc5)C4)ccc3C2=O)C(=O)N1` (centres unmarked) [GT-03923, 3-(5-((1-((4′-chloro-[1,1′-biphenyl]-2-yl)methyl)azetidin-3-yl)methyl)-1-oxoisoindolin-2-yl)piperidine-2,6-dione], with 170 nM; and `CC1(C)CCC(CN2C[C@H]3C[C@@H]2CN3Cc2ccc3c(c2)CN(C2CCC(=O)NC2=O)C3=O)=C(c2ccc(Cl)cc2)C1` (stereo partly drawn) [GT-03887, 3-(5-(((1R,4R)-5-((4′-chloro-5,5-dimethyl-3,4,5,6-tetrahydro-[1,1′-biphenyl]-2-yl)methyl)-2,5-diazabicyclo[2.2.1]heptan-2-yl)methyl)-1-oxoisoindolin-2-yl)piperidine-2,6-dione], with 190 nM.
Compound `CC1(C)CCC(C(=O)N2C3CC2CN(Cc2ccc4c(c2)CN(C2CCC(=O)NC2=O)C4=O)C3)=C(c2ccc(Cl)cc2)C1` (centres unmarked) [GT-05660, 3-(5-((6-(4′-chloro-5,5-dimethyl-3,4,5,6-tetrahydro-[1,1′-biphenyl]-2-carbonyl)-3,6-diazabicyclo[3.1.1]heptan-3-yl)methyl)-1-oxoisoindolin-2-yl)piperidine-2,6-dione] yielded an IC50 of 1040 nM.
For the compound `CC1(C)CCC(CN2CC3CC2CN3C(=O)c2ccc3c(c2)CN(C2CCC(=O)NC2=O)C3=O)=C(c2ccc(Cl)cc2)C1` (centres unmarked) [GT-05541, 3-(5-(5-((4′-chloro-5,5-dimethyl-3,4,5,6-tetrahydro-[1,1′-biphenyl]-2-yl)methyl)-2,5-diazabicyclo[2.2.1]heptane-2-carbonyl)-1-oxoisoindolin-2-yl)piperidine-2,6-dione], the concentration for half-maximal inhibition (IC50) stood at 600 nM.
In the case of `O=C1CCC(N2Cc3cc(CCCN4CCN(Cc5ccccc5-c5ccc(Cl)cc5)CC4)ccc3C2=O)C(=O)N1` (centres unmarked) [GT-05893, 3-(5-(3-(4-((4′-chloro-[1,1′-biphenyl]-2-yl)methyl)piperazin-1-yl)propyl)-1-oxoisoindolin-2-yl)piperidine-2,6-dione], the IC50 was 1150 nM.
Under `O=C1CCC(N2Cc3cc(CN4CCN(Cc5ccccc5-c5ccc(Cl)cc5)CC4)cc(F)c3C2=O)C(=O)N1` (centres unmarked) [GT-03696, 3-(5-((4-((4′-chloro-[1,1′-biphenyl]-2-yl)methyl)piperazin-1-yl)methyl)-7-fluoro-1-oxoisoindolin-2-yl)piperidine-2,6-dione] stands 880 nM.
Take `O=C1CCC(N2Cc3c(ccc(CN4C5CC4CN(C(=O)C4=C(c6ccc(F)cc6)CCCC4)C5)c3F)C2=O)C(=O)N1` (centres unmarked) [GT-05475, 3-(4-fluoro-5-((3-(4′-fluoro-3,4,5,6-tetrahydro-[1,1′-biphenyl]-2-carbonyl)-3,6-diazabicyclo[3.1.1]heptan-6-yl)methyl)-1-oxoisoindolin-2-yl)piperidine-2,6-dione]: the IC50 is 910 nM.
As to `O=C1CCC(N2Cc3c(ccc(CN4C5CC4CN(C(=O)c4ccccc4-c4ccc(Cl)cc4)C5)c3F)C2=O)C(=O)N1` (centres unmarked) [GT-05666, 3-(5-((3-(4′-chloro-[1,1′-biphenyl]-2-carbonyl)-3,6-diazabicyclo[3.1.1]heptan-6-yl)methyl)-4-fluoro-1-oxoisoindolin-2-yl)piperidine-2,6-dione], the concentration for half-maximal inhibition (IC50) stood at 690 nM.
For the compound `CC1(C)CCC(C(=O)N2CC3CCC(C2)N3C(=O)c2ccc3c(c2)CN(C2CCC(=O)NC2=O)C3=O)=C(c2ccc(Cl)cc2)C1` (centres unmarked) [GT-05539, 3-(5-(3-(4′-chloro-5,5-dimethyl-3,4,5,6-tetrahydro-[1,1′-biphenyl]-2-carbonyl)-3,8-diazabicyclo[3.2.1]octane-8-carbonyl)-1-oxoisoindolin-2-yl)piperidine-2,6-dione], the IC50 was 1280 nM.
In turn, `O=C1CCC(N2Cc3cc(CN4CC5CC(C4)N5C(=O)c4ccccc4-c4ccc(Cl)cc4)ccc3C2=O)C(=O)N1` (centres unmarked) [GT-05669, 3-(5-((6-(4′-chloro-[1,1′-biphenyl]-2-carbonyl)-3,6-diazabicyclo[3.1.1]heptan-3-yl)methyl)-1-oxoisoindolin-2-yl)piperidine-2,6-dione] came in with an IC50 of 630 nM.
Turning to `CC1(C)CCC(CN2C3CCC2CN(Cc2ccc4c(c2)CN(C2CCC(=O)NC2=O)C4=O)C3)=C(c2ccc(F)cc2)C1` (centres unmarked) [GT-05510, 3-(5-((8-((4′-fluoro-5,5-dimethyl-3,4,5,6-tetrahydro-[1,1′-biphenyl]-2-yl)methyl)-3,8-diazabicyclo[3.2.1]octan-3-yl)methyl)-1-oxoisoindolin-2-yl)piperidine-2,6-dione], the 50% inhibitory concentration (IC50) is 1220 nM.
As for `CC1(C)CCC(C(=O)N2CC(Cc3ccc4c(c3)CN(C3CCC(=O)NC3=O)C4=O)C2)=C(c2ccc(Cl)cc2)C1` (centres unmarked) [GT-05419, 3-(5-((1-(4′-chloro-5,5-dimethyl-3,4,5,6-tetrahydro-[1,1′-biphenyl]-2-carbonyl)azetidin-3-yl)methyl)-1-oxoisoindolin-2-yl)piperidine-2,6-dione], the half-maximal inhibitory concentration (IC50) turned out to be 720 nM.
As to `O=C1CCC(N2Cc3ccc(CN4CCN(Cc5ccccc5-c5ccc(F)cc5)CC4)cc3C2=O)C(=O)N1` (centres unmarked) [GT-05606, 3-(6-((4-((4′-fluoro-[1,1′-biphenyl]-2-yl)methyl)piperazin-1-yl)methyl)-1-oxoisoindolin-2-yl)piperidine-2,6-dione], the IC50 worked out at 1180 nM.
`CC1(C)CCC(CN2CC3CC(C2)N3Cc2ccc3c(c2)CN(C2CCC(=O)NC2=O)C3=O)=C(c2ccc(Cl)cc2)C1` (centres unmarked) [GT-03492, 3-(5-((3-((4′-chloro-5,5-dimethyl-3,4,5,6-tetrahydro-[1,1′-biphenyl]-2-yl)methyl)-3,6-diazabicyclo[3.1.1]heptan-6-yl)methyl)-1-oxoisoindolin-2-yl)piperidine-2,6-dione] came in with a 50% inhibitory concentration (IC50) of 520 nM.
In the case of `CC1(C)CCC(C(=O)N2CC3CC(C2)N3Cc2ccc3c(c2)CN(C2CCC(=O)NC2=O)C3=O)=C(c2ccc(F)cc2)C1` (centres unmarked) [GT-05514, 3-(5-((3-(4′-fluoro-5,5-dimethyl-3,4,5,6-tetrahydro-[1,1′-biphenyl]-2-carbonyl)-3,6-diazabicyclo[3.1.1]heptan-6-yl)methyl)-1-oxoisoindolin-2-yl)piperidine-2,6-dione], the half-maximal inhibitory concentration (IC50) came to 740 nM.
For `O=C1CCC(N2Cc3cc(CN4CCN(C(=O)c5ccccc5-c5ccc(Cl)cc5)CC4)cc(F)c3C2=O)C(=O)N1` (centres unmarked) [GT-05700, 3-(5-((4-(4′-chloro-[1,1′-biphenyl]-2-carbonyl)piperazin-1-yl)methyl)-7-fluoro-1-oxoisoindolin-2-yl)piperidine-2,6-dione], the IC50 is 1220 nM.
In turn, `O=C1CCC(N2Cc3cccc(CN4C5CC4CN(C(=O)C4=C(c6ccc(F)cc6)CCCC4)C5)c3C2=O)C(=O)N1` (centres unmarked) [GT-05480, 3-(7-((3-(4′-fluoro-3,4,5,6-tetrahydro-[1,1′-biphenyl]-2-carbonyl)-3,6-diazabicyclo[3.1.1]heptan-6-yl)methyl)-1-oxoisoindolin-2-yl)piperidine-2,6-dione] displayed a 50% inhibitory concentration (IC50) of 1740 nM.
